From patent US7173004B2, “Macrocyclic isoquinoline peptide inhibitors of hepatitis C virus” (Bristol-Myers Squibb Company, priority 2003, dated 2007) come the findings set out here.

The assay has as its system HCV replicon (HCV 1b-377-neo replicon cells, Huh7). In words: HCV replicon cell-based FRET assay. Conditions: Hepatitis C virus, Huh-7. The essentials:
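Huh7 cells carrying a neo-selectable genotype 1b HCV replicon (~3,000 RNA copies/cell) were seeded at 1.5×10^4 cells/well and treated 4 days at 37 °C (0.5% DMSO final). CC50 was read by alamar Blue (4 h, ex 530/em 580 nm). Lysates with 10 μM EDANS/DABCYL NS3 protease FRET peptide were read kinetically (ex 340/em 490 nm, 25 °C, ~15 min) for % inhibition.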
In general terms: In antiviral work, replicon cells carry a viral genome segment that copies itself.
For `COc1ccc2c(O[C@@H]3C[C@H]4C(=O)N[C@]5(C(=O)NS(=O)(=O)C6CC6)C[C@H]5/C=C\CCCSC(C)(C)[C@H](NC(=O)OC(C)(C)C)C(=O)N4C3)nccc2c1` [Compound 80, (1S,4R,6S,14R,18R)-[7-cis-4-Cyclopropanesulfonylaminocarbonyl-13,13-dimethyl-18-(6-methoxyisoquinolin-1-yloxy)-2,15-dioxo-12-thia-3,16-diaza-tricyclo[14.3.0.0^4,6]nonadec-7-en-14-yl]carbamic acid, tert-butyl ester], the EC50 (usually the concentration that produces a half-maximal response) lay within 50 to 500 nM.
As to `COc1ccc2c(OC3CC4C(=O)NC5(C(=O)NS(=O)(=O)C6CC6)CC5C=CCCCSC(C)(C)C(NC(=O)NC(C)(C)C)C(=O)N4C3)nccc2c1` (stereo not drawn) [Compound 81], the EC50 lay in the range of 50 to 500 nM.
The figure for `COc1ccc2c(OC3CC4C(=O)NC5(C(=O)NS(=O)(=O)C6CC6)CC5C=CCCCSC(C)(C)C(NC(=O)NC5CCCC5)C(=O)N4C3)nccc2c1` (stereo not drawn) [Compound 82] is 50 to 500 nM; for `COc1ccc2c(OC3CC4C(=O)NC5(C(=O)NS(=O)(=O)C6CC6)CC5C=CCCCSC(C)(C)C(N)C(=O)N4C3)nccc2c1` (stereo not drawn) [Compound 83] it is 5000 to 50000 nM; for `COc1ccc2c(O[C@@H]3C[C@H]4C(=O)N[C@]5(C(=O)NS(=O)(=O)C6CC6)C[C@H]5/C=C\CCCOC[C@H](NC(=O)OC(C)(C)C)C(=O)N4C3)nccc2c1` [Compound 85, (1S,4R,6S,14S,18R)-[7-cis-4-Cyclopropanesulfonylaminocarbonyl-18-(6-methoxy-isoquinolin-1-yloxy)-2,15-dioxo-12-oxa-3,16-diaza-tricyclo[14.3.0.0^4,6]nonadec-7-en-14-yl]-carbamic acid, tert-butyl ester] it is less than 50 nM.
Compound `COc1ccc2c(OC3CC4C(=O)NC5(C(=O)NS(=O)(=O)C6CC6)CC5C=CCCCOCC(NC(=O)NC(C)(C)C)C(=O)N4C3)nccc2c1` (stereo not drawn) [Compound 86] registered an EC50 of less than 50 nM.
The figure for `COc1ccc2c(OC3CC4C(=O)NC5(C(=O)NS(=O)(=O)C6CC6)CC5C=CCCCOCC(NC(=O)NC5CCCC5)C(=O)N4C3)nccc2c1` (stereo not drawn) [Compound 87] is less than 50 nM; for `COc1ccc2c(OC3CC4C(=O)NC5(C(=O)NS(=O)(=O)C6CC6)CC5C=CCCCOCC(NC(=O)OCC(C)(C)C)C(=O)N4C3)nccc2c1` (stereo not drawn) [Compound 88] it is less than 50 nM.
The figure for `COc1ccc2c(OC3CC4C(=O)NC5(C(=O)NS(=O)(=O)C6CC6)CC5C=CCCCOCC(NC(=O)OC(C)C)C(=O)N4C3)nccc2c1` (stereo not drawn) [Compound 89] is less than 50 nM.
The figure for `COc1ccc2c(OC3CC4C(=O)NC5(C(=O)NS(=O)(=O)C6CC6)CC5C=CCCCOCC(NC(=O)OC5CCCC5)C(=O)N4C3)nccc2c1` (stereo not drawn) [Compound 90] is less than 50 nM; for `COc1ccc2c(OC3CC4C(=O)NC5(C(=O)NS(=O)(=O)C6CC6)CC5C=CCCCOCC(NC(=O)NC(C)(C)C)C(=O)N4C3)nc(-c3ccccc3)cc2c1` (stereo not drawn) [Compound 92] it is less than 50 nM.
`COc1ccc2c(OC3CC4C(=O)NC5(C(=O)NS(=O)(=O)C6CC6)CC5C=CCCCOCC(NC(=O)N5CCCC5)C(=O)N4C3)nc(-c3ccccc3)cc2c1` (stereo not drawn) [Compound 93] had an EC50 of less than 50 nM.
The figure for `COc1ccc2c(OC3CC4C(=O)NC5(C(=O)NS(=O)(=O)C6CC6)CC5C=CCCCOCC(NC(=O)OC5CCCC5)C(=O)N4C3)nc(-c3ccccc3)cc2c1` (stereo not drawn) [Compound 94] is less than 50 nM; for `COc1ccc2c(OC3CC4C(=O)NC5(C(=O)NS(=O)(=O)C6CC6)CC5C=CCCCOCC(NC(=O)OCC(C)(C)C)C(=O)N4C3)nc(-c3ccccc3)cc2c1` (stereo not drawn) [Compound 95] it is less than 50 nM; for `COc1ccc2c(OC3CC4C(=O)NC5(C(=O)NS(=O)(=O)C6CC6)CC5C=CCCCOCC(NC(=O)OC(C)C)C(=O)N4C3)nc(-c3ccccc3)cc2c1` (stereo not drawn) [Compound 96] it is less than 50 nM.
Regarding `COc1ccc2c(OC3CC4C(=O)NC5(C(=O)NS(=O)(=O)C6CC6)CC5C=CCOCCCC(NC(=O)OC(C)C)C(=O)N4C3)nc(-c3ccccc3)cc2c1` (stereo not drawn) [Compound 98], the EC50 was less than 50 nM.
The figure for `COc1ccc2c(OC3CC4C(=O)NC5(C(=O)NS(=O)(=O)C6CC6)CC5C=CCOCCCC(NC(=O)OC5CCCC5)C(=O)N4C3)nc(-c3ccccc3)cc2c1` (stereo not drawn) [Compound 99] is less than 50 nM.
The figure for `COc1ccc2c(OC3CC4C(=O)NC5(C(=O)NS(=O)(=O)C6CC6)CC5C=CCOCCCC(NC(=O)N5CCCC5)C(=O)N4C3)nc(-c3ccccc3)cc2c1` (stereo not drawn) [Compound 100] is less than 50 nM; for `COc1ccc2c(OC3CC4C(=O)NC5(C(=O)NS(=O)(=O)C6CC6)CC5C=CCOCCCC(NC(=O)NC(C)(C)C)C(=O)N4C3)nc(-c3ccccc3)cc2c1` (stereo not drawn) [Compound 102] it is less than 50 nM.
The figure for `COc1ccc2c(OC3CC4C(=O)NC5(C(=O)NS(=O)(=O)C6CC6)CC5C=CCOCCCC(NC(=O)OCC(C)(C)C)C(=O)N4C3)nc(-c3ccccc3)cc2c1` (stereo not drawn) [Compound 103] is less than 50 nM; for `COc1ccc2c(OC3CC4C(=O)NC5(C(=O)NS(=O)(=O)C6CC6)CC5C=CCOCCCC(NC(=S)NC5CC5)C(=O)N4C3)nc(-c3ccccc3)cc2c1` (stereo not drawn) [Compound 104] it is 50 to 500 nM.
Turning to `COc1ccc2c(OC3CC4C(=O)NC5(C(=O)NS(=O)(=O)C6CC6)CC5C=CCOCCCC(NC(=O)Nc5ccc(C#N)cc5)C(=O)N4C3)nc(-c3ccccc3)cc2c1` (stereo not drawn) [Compound 105], the EC50 lay in the range of 50 to 500 nM.
The compound `COc1ccc2c(OC3CC4C(=O)NC5(C(=O)NS(=O)(=O)C6CC6)CC5C=CCOCCCC(NC(=O)N5CCNC5=O)C(=O)N4C3)nc(-c3ccccc3)cc2c1` (stereo not drawn) [Compound 106] came in with an EC50 of 500 to 5000 nM.
The figure for `COc1ccc2c(OC3CC4C(=O)NC5(C(=O)NS(=O)(=O)C6CC6)CC5C=CCCCOCC(NC(=O)NC(C)(C)C)C(=O)N4C3)nc(-c3ccc(N(C)C)cc3)cc2c1` (stereo not drawn) [Compound 108] is less than 50 nM; for `COc1ccc2c(OC3CC4C(=O)NC5(C(=O)NS(=O)(=O)C6CC6)CC5C=CCCCOCC(NC(=O)OC(C)C)C(=O)N4C3)nc(-c3ccc(N(C)C)cc3)cc2c1` (stereo not drawn) [Compound 109] it is less than 50 nM; for `COc1ccc2c(OC3CC4C(=O)NC5(C(=O)NS(=O)(=O)C6CC6)CC5C=CCCCOCC(NC(=O)OC5CCCC5)C(=O)N4C3)nc(-c3ccc(N(C)C)cc3)cc2c1` (stereo not drawn) [Compound 110] it is less than 50 nM.
The figure for `COc1ccc2c(OC3CC4C(=O)NC5(C(=O)NS(=O)(=O)C6CC6)CC5C=CCCCOCC(NC(=O)N5CCCC5)C(=O)N4C3)nc(-c3ccc(N(C)C)cc3)cc2c1` (stereo not drawn) [Compound 111] is less than 50 nM; for `CNc1ccc(-c2cc3cc(OC)ccc3c(OC3CC4C(=O)NC5(C(=O)NS(=O)(=O)C6CC6)CC5C=CCOCCCC(NC(=O)OC(C)(C)C)C(=O)N4C3)n2)cc1` (stereo not drawn) [Compound 113] it is less than 50 nM.
The figure for `COc1ccc2c(OC3CC4C(=O)NC5(C(=O)NS(=O)(=O)C6CC6)CC5C=CCOCCCC(NC(=O)OC(C)(C)C)C(=O)N4C3)nc(-c3ccc(N(C)C=O)cc3)cc2c1` (stereo not drawn) [Compound 114] is less than 50 nM.
Turning to `COc1ccc2c(OC3CC4C(=O)NC5(C(=O)NS(=O)(=O)C6(C)CC6)CC5C=CCCCSCC(NC(=O)OC(C)(C)C)C(=O)N4C3)nccc2c1` (stereo not drawn) [Compound 115], the EC50 is less than 50 nM.
`COc1ccc2c(OC3CC4C(=O)NC5(C(=O)NS(=O)(=O)C6CC6)CC5C=CCCCSCC(N)C(=O)N4C3)nccc2c1` (stereo not drawn) [Compound 117] yielded an EC50 of 50 to 500 nM.
The figure for `CCSC(=O)NC1CCCCCC=CC2CC2(C(=O)NS(=O)(=O)C2CC2)NC(=O)C2CC(Oc3nccc4ccccc34)CN2C1=O` (stereo not drawn) [Compound 118] is less than 50 nM; for `O=CNC1CCCCCC=CC2CC2(C(=O)NS(=O)(=O)C2CC2)NC(=O)C2CC(Oc3nccc4ccccc34)CN2C1=O` (stereo not drawn) [Compound 119] it is 50 to 500 nM.
The figure for `CCC1(S(=O)(=O)NC(=O)C23CC2C=CCCCSCC(NC(=O)OC(C)(C)C)C(=O)N2CC(Oc4nccc5cc(OC)ccc45)CC2C(=O)N3)CC1` (stereo not drawn) [Compound 121] is less than 50 nM.
The figure for `CC1(COC(=O)NC2CCCCCC=CC3CC3(C(=O)NS(=O)(=O)C3CC3)NC(=O)C3CC(Oc4nccc5ccccc45)CN3C2=O)CC1` (stereo not drawn) [Compound 122] is less than 50 nM.
On to `CC(=O)C(C)(C)OC(=O)NC1CCCCCC=CC2CC2(C(=O)NS(=O)(=O)C2CC2)NC(=O)C2CC(Oc3nccc4ccccc34)CN2C1=O` (stereo not drawn) [Compound 123], for which the EC50 fell in the range of 50 to 500 nM.
`CC(C)(OC(=O)NC1CCCCCC=CC2CC2(C(=O)NS(=O)(=O)C2CC2)NC(=O)C2CC(Oc3nccc4ccccc34)CN2C1=O)C(Cl)(Cl)Cl` (stereo not drawn) [Compound 124] registered an EC50 of less than 50 nM.
The figure for `CCC(C)(C)OC(=O)NC1CCCCCC=CC2CC2(C(=O)NS(=O)(=O)C2CC2)NC(=O)C2CC(Oc3nccc4ccccc34)CN2C1=O` (stereo not drawn) [Compound 125] is less than 50 nM.
The figure for `CC(C)(C)NC(=O)N[C@H]1CCCCC/C=C\[C@@H]2C[C@@]2(C(=O)NS(=O)(=O)C2CC2)NC(=O)[C@@H]2C[C@@H](Oc3nccc4ccccc34)CN2C1=O` [Compound 126] is less than 50 nM.
For `O=C(NC1CCCC1)NC1CCCCCC=CC2CC2(C(=O)NS(=O)(=O)C2CC2)NC(=O)C2CC(Oc3nccc4ccccc34)CN2C1=O` (stereo not drawn) [Compound 127], the EC50 is less than 50 nM.
The figure for `CC(C)NC(=O)NC1CCCCCC=CC2CC2(C(=O)NS(=O)(=O)C2CC2)NC(=O)C2CC(Oc3nccc4ccccc34)CN2C1=O` (stereo not drawn) [Compound 128] is less than 50 nM; for `CC(C)(C)CC(C)(C)NC(=O)NC1CCCCCC=CC2CC2(C(=O)NS(=O)(=O)C2CC2)NC(=O)C2CC(Oc3nccc4ccccc34)CN2C1=O` (stereo not drawn) [Compound 129] it is less than 50 nM; for `CC(C)(C)OC(=O)NC1CCCCCC=CC2CC2(C(=O)NS(=O)(=O)C2CC2)NC(=O)C2CC(Oc3nccc4c(Cl)cccc34)CN2C1=O` (stereo not drawn) [Compound 130] it is less than 50 nM.
The figure for `COc1ccc2c(OC3CC4C(=O)NC5(C(=O)NS(=O)(=O)C6CC6)CC5C=CCCCCCC(NC(=O)OC(C)(C)C)C(=O)N4C3)nccc2c1F` (stereo not drawn) [Compound 132] is less than 50 nM.
The figure for `COc1cccc2c(OC3CC4C(=O)NC5(C(=O)NS(=O)(=O)C6CC6)CC5C=CCCCCCC(NC(=O)OC(C)(C)C)C(=O)N4C3)nccc12` (stereo not drawn) [Compound 133] is less than 50 nM.
